{"source": "paper PMC8386742", "about": "“Discovery of N-aryl sulphonamide-quinazoline derivatives as anti-gastric cancer agents in vitro and in vivo via activating the Hippo signalling pathway” (Journal of Enzyme Inhibition and Medicinal Chemistry, 2021)", "key": {"MGC-803 xenograft tumour": {"tested_on": "MGC-803 xenograft tumour", "assay": "MGC-803 xenograft model", "type": "in vivo, nude mice", "method": "When the tumour volume reached 100 mm^3, vehicle control, compound 9i, and 5-FU were administered by daily intraperitoneal injection for 21 consecutive days. During the treatment, tumour volume and body weight of nude mice were measured every 3 days from the beginning of treatment. […] Tumour weight was measured after the execution of animals, the inhibition rate of the compound 9i treated group was over 60% than the vehicle group (Figures 7(B,C)). Tunnel staining was used for cell apoptosis detection, as shown in Figure 7(D), compound 9i increased the level of cell apoptosis. […] Next, the levels of YAP, Bcl-2, c-Myc, Ki67, and cleaved PARP in tissues were detected using immunochemistry to validate the results. […] The data indicated compound 9i inhibited YAP to inhibit the tumour in vivo.\nA human gastric cancer subcutaneous transplantation tumour model was established with MGC-803 cells. After the tumour volume reaches 100 mm3 the MGC-803 bearing mice were randomised into 3 groups and intraperitoneal injection with normal saline or drugs continuously for 21 days. Tumour volume was measured every 3 days (Length × Width2/2). Mice were executed after treatment. 500 μL blood samples was collected each mouse, samples were then centrifuged at 2000 g for 10 min for biochemistry analysis. Tumour and organs tissues were harvested for H&E staining or immunochemistry detection. The experiments in the study were performed comply with the protocols approved by the Institutional Animal Care and Use Committee, Zhengzhou University."}, "GES-1 cells": {"tested_on": "GES-1 cells", "assay": "MTT antiproliferative assay, GES-1 normal gastric epithelial cells", "type": "cell-based", "source_text": "Furthermore, MGC-803 cells were more sensitive to the compounds than HCT-116, PC-3 cells MCF-7 cells. Moreover, we chose two other common gastric cancer cell lines (HGC-27 and SGC-7901) and another two normal cells GES-1 and HUEVC cells to examine for the inhibitory activity of compound 9i.\nSince compound 9i presented high potency against cancer cells and MGC-803 cells was more sensitive to compound 9i, compound 9i, MGC-803, another two gastric cancer cells SGC-7901, HGC-27, and GES-1(normal gastric epithelial cells) were used for further detection. As shown in Figures 3(A,B), compound 9i inhibited three gastric cancer cell lines in the dose and time-dependent manners. The inhibition ratios of compound 9i against three gastric cancer cells were all above 50% after 48 h in the high dosage group. Moreover, MGC-803 and SGC-7901 cell lines were more sensitive and compound 9i inhibited over 65% cell viability with high dose treatment for 48 h.\n(§1) Cell lines used were cultured in humidified incubator in a humidified atmosphere of 5% CO2 and 95% air. The RPMI-1640 medium was supplemented with 10% foetal bovine serum, penicillin (100 U/ml) and streptomycin (0.1 mg/ml).\n(§2) Cell lines were seeded into 96-well plates and incubated for 24 h. Then cells were treated with different concentrations of compounds. And after another 48 h, MTT reagent (20 μL per well) was added to each well and then incubated at 37 °C for 4 h. After the suspension was discarded, formazan was then dissolved with DMSO. Absorbencies of formazan solution were measured at 490 nm. The IC50 values of tested compounds were calculated by SPSS version 17.0."}, "MGC-803 cells": {"tested_on": "MGC-803 cells", "assay": "MTT antiproliferative assay, MGC-803 cells", "type": "cell-based, human", "conditions": "exposure for 48 h", "method": "(§3) The in vitro antiproliferative activities of new target compounds 6a–6g, 9a–9i, 10a–10j, 11a–11j, and 14a–14d were evaluated against four human cancer cell lines (MGC-803, PC-3, HCT-116, and MCF-7) using MTT assay and 5-FU as a positive drug. The following Tables 1–[4] depicted the results of in vitro antiproliferative activity.\nas §1, §2"}, "[1]": {"tested_on": "P38, ERK, AKT, mTOR and Wnt pathways", "assay": "Activity on P38, ERK, AKT, mTOR and Wnt pathways in cells", "type": "cell-based", "conditions": "20, 40 and 60 nM, 48 hours", "source_text": "In this work, compound 9i was design and synthesized by SAR study of our reported tertiary amide derivatives compound 1 and compound 2. Therefore, we tested the influence of compound 9i on tubulin polymerization and AKT/mTOR and ERK […]\ninfluence on tubulin polymerization and P38, ERK, AKT, mTOR and Wnt pathways . […]\npathway. Therefore, we here reported N-sulfonamide-quinazoline derivatives as novel anti-gastric cancer agents via activating the Hippo signaling pathway in vitro and in […]\nSupporting Figure S1. A. Activity of compound 9i on tubulin polymerization . Tubulin polymerization extracellular, concentrations of Paclitaxel, Colchicine and 9i were 3 μmol/L; Activity of compound 9i on P38, ERK, AKT, mTOR and Wnt pathways, cells were incubated with […]\n(1 picture or pasted object on this page, not shown here)"}, "[2]": {"tested_on": "MGC-803 and SGC-7901 cells", "assay": "Cell cycle distribution in gastric cancer cells", "type": "cell-based", "conditions": "24 h", "source_text": "Because of the potent inhibitory activity on cell viability of compound 9i, we next explored the effects of compound 9i on cell proliferation in MGC-803 and SGC-7901 cells.\nFigure 6. Gastric cancer cell proliferation inhibition inhibited by 9i. Density ratios relative to β-Actin were shown on the top of each Western blotting band. (A,B) Cell growth curves of in MGC-803 and SGC-7901 cells after the treatment with indicated concentrations of 9i for different hours; (C,D). Gastric cancer cell colony formation, cells were treated for 7 days; (E) Cell cycle distribution of MGC-803 and SGC-7901 after the treatment with indicated concentrations of 9i for 24 h; (F,G) Cell cycle related proteins in gastric cancer cells after the treatment with indicated concentrations of 9i for 24 h."}, "HCT-116 cells": {"tested_on": "HCT-116 cells", "assay": "MTT antiproliferative assay, HCT-116 cells", "type": "cell-based, human", "conditions": "exposure for 48 h", "method": "as §3, §1, §2"}}, "data": [{"smiles": "COc1ccc(S(=O)(=O)N(Cc2nc(C)c3ccccc3n2)c2cc(OC)c(OC)c(OC)c2)cc1", "note": "[Compound 9i, 4-Methoxy-N-((4-methylquinazolin-2-yl)methyl)-N-(3,4,5-trimethoxyphenyl) benzene-sulfonamide]", "values": [{"measurement": "tumour growth (tumour volume)", "setting": "MGC-803 xenograft tumour; daily intraperitoneal injection for 21 days", "result": "inhibited tumour growth in vivo"}, {"measurement": "tumour weight inhibition rate", "setting": "MGC-803 xenograft tumour; daily intraperitoneal injection for 21 days, versus vehicle group", "result": "over 60%"}, {"measurement": "expression of YAP, Bcl-2 and c-Myc in tumour tissues", "setting": "MGC-803 xenograft tumour; tumour tissues after 21 days treatment", "result": "significantly down-regulated"}, {"measurement": "IC50", "setting": "GES-1 cells; Homo sapiens, GES1, MTT, exposure for 48 h, non-cancer cell line", "result": 894, "unit": "nM"}, {"measurement": "cytotoxicity towards GES-1 cells", "setting": "GES-1 cells; normal gastric epithelial cells", "result": "low cytotoxicity"}, {"measurement": "IC50", "setting": "MGC-803 cells; Homo sapiens, MGC-803, 48 h", "result": "360 ± 20", "unit": "nM"}, {"measurement": "IC50", "setting": "MGC-803 cells", "result": 363, "unit": "nM"}, {"measurement": "influence on P38, ERK, AKT, mTOR and Wnt pathways", "setting": "[1]", "result": "no strong influence"}, {"measurement": "cell cycle arrest", "setting": "[2]", "result": "remarkable and dose-dependent G2/M arrest"}, {"measurement": "IC50", "setting": "HCT-116 cells; Homo sapiens, HCT-116, 48 h", "result": 708, "unit": "nM"}, {"measurement": "IC50", "setting": "HCT-116 cells", "result": "700 ± 40", "unit": "nM"}]}]}
